pEC50, pIC50: −log10 of the molar value. Where “and” joins values, the source holds several entries; their conditions need not be identical. Equal values may be shown once.
Columns and labels:
[1] = biological target: T1, MKK4 (Homo sapiens, UniProt P45985); assay: In vitro activity assay for MKK4 (Nanosyn); format: biochemical
T1 construct: purchased Nanosyn (contract assay)
T1 sequence (P45985 1-399): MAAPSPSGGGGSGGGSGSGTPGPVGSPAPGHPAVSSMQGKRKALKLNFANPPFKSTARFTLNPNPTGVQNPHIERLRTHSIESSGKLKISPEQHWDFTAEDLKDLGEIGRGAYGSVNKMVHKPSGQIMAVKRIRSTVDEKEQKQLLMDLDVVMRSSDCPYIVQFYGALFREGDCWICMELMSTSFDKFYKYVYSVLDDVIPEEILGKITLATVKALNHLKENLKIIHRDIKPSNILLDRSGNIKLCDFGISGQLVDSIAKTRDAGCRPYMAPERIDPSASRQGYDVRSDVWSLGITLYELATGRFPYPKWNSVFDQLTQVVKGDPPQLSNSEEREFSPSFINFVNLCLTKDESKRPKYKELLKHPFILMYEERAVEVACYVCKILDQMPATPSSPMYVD
Procedure: In Vitro Activity Assays for MKK7 or MKK4 (Carried by Nanosyn):
Exemplary test compounds, according to some embodiments of the present invention, were diluted in DMSO to a final concentration that ranged from 10 μM to 0.0565 nM, while final concentration of DMSO in all assays was kept at 1%. Reference compound, Staurosporine, was tested in a similar manner. […] After incubation, activity of now activated JNK1 was tested in the presence of 30 μM ATP ATP for 17 h (MKK7) or 4 h (MKK4).

[2] = tested on: pJNK in HEK293 cells; assay: In-cell western (ICW) pJNK inhibition in HEK293; format: cell-based; settings: 2 h pre-incubation, sorbitol stimulation
Procedure: (§1) HEK293, Beas2B and 3T3 cells were plated 24 hours before procedure on 384 well clear bottom black flat plates (Corning) pre-coated with Fibronectin (Sigma) diluted in PBS to a concentration of 5 μg/ml 45 minutes prior to cells introduction. Cells were plated using Multidrop™ Combi reagent dispenser (Thermo Fisher Scientific). Compound, reagents and antibody dispensing as well as washes were performed with a CyBio liquid handler (Analytik). Cells were pre-incubated with a small molecule or up to 1% DMSO for 2 h before fixation. HEK293, 3T3 or Beas2B cells were treated with 0.6M/0.2M/0.2M D-Sorbitol/PBS (Sigma) for 20/40/40 min. respectively, before fixation. Media was removed and wells were immediately fixed with 150 μl per well of 3.7% formaldehyde/PBS fixing solution for 20 min. Formaldehyde was then aspired and cells were permeabilized with 150 μl of 0.5% Triton x-100/PBS solution for 10 min. After aspiration cells were washed with ice-cold methanol and stored at −20° C., for 10 min. Methanol was aspired and cells were blocked with 150 μl blocking buffer (LICOR) for 90 min. Primary antibody Phospho-SAPK/JNK T183/Y185 (CST; 9251S) was diluted 1:1000 in blocking buffer and was applied 50 μl per well, except control wells to which only blocking buffer was applied, O.N. (16 h) at 4° C. with mild shaking. Primary antibody was aspired, wells were washed with 150 μl 0.1% Tween20/PBS (Sigma) washing solution three times for 7 min. IRDye® 800CW Goat anti-Rabbit IgG Secondary antibody (LICOR) was then diluted 1:1200 in blocking buffer with 50 μl applied per well on control wells only (no CellTag control), then CellTag700 (1:2000) was added to the solution and 50 μl were added to all experiment wells, for 1 h at room temperature. Wells were aspired and washed again with 150 μl 0.1% Tween20/PBS (Sigma) washing solution three times for 7 min. plate was dried and scanned with Odyssey CLx imaging system at 700 nm and 800 nm (Licor). Wells signals were analyzed with Odyssey software. The signal was normalized by the CellTag700 signal.
(§2) To rapidly assess the cellular activity (EC50) with full dose response curves of the MKK7 covalent inhibitors, according to some embodiments of the present invention, an in-cell western assay was adapted to a 384 well plate format over traditional western blot, and monitored phospho-JNK (pJNK) levels in response to osmotic shock. We first characterized the dynamics of pJNK in response to sorbitol. Sufficient dynamic range for pJNK is achieved at 20 minutes in HEK293 cells and at 40 minutes in 3T3 and Beas2B cells. The compound's activity was assessed by pre-treating cells with either compound or DMSO for 2 hours, followed by Sorbitol stimulation. The response of pJNK, and its substrates, pc-Jun and pATF2, was measured, as well as pP38, which is a substrate of MKK4 but not MKK7, and pERK in HEK293 cells, and the results are presented in Table 5 below.

[3] = tested on: pJNK in 3T3 WT cells; assay: In-cell western (ICW) pJNK inhibition in 3T3 WT; format: cell-based; settings: 3T3 WT, sorbitol stimulation
Procedure: as §1, §2
Wildtype 3T3 cells, 3T3 MKK7 double knock-out (MKK7^−/−) cells and MKK4/7 double knockouts (MKK4/7^−/−) were used to validate on target activity of the MKK7 covalent inhibitors presented herein.

[4] = Metabolic stability in rat liver microsomes; format: in vitro ADME; settings: for half-life: rat, liver microsomes
From the text: (§3) A reference compound, REF1250, was used in this study: […]

[5] = Metabolic stability in dog liver microsomes; format: in vitro ADME; settings: for half-life: dog, liver microsomes
From the text: as §3

[6] = Metabolic stability in monkey liver microsomes; format: in vitro ADME
From the text: as §3

[7] = biological target: AKT1 (PKB alpha) (Homo sapiens, UniProt P31749); assay: Kinome selectivity screen AKT1; format: biochemical; settings: 1 μM compound
Procedure: (§4) Kinome Selectivity Screen:
(§5) Kinase selectivity was assessed using the Life Technologies SelectScreen Kinase Profiling Service in a custom panel of 76 kinases selected to provide broad representative coverage of all kinase families. Kinase activity assays employed either the Z′-LYTE or Adapta assay technologies with ATP concentrations at or near the KM, ATP for each kinase and a test compound concentration of 1 μM.

[8] = biological target: EGFR (ErbB1) (Homo sapiens, UniProt P00533); assay: Kinome selectivity screen EGFR; format: biochemical; settings: 1 μM compound
Procedure: as §4, §5

[9] = biological target: EPHB1 (Homo sapiens, UniProt P54762); assay: Kinome selectivity screen EPHB1; format: biochemical; settings: 1 μM compound
Procedure: as §4, §5

[10] = biological target: FLT3 (Homo sapiens, UniProt P36888); assay: Kinome selectivity screen FLT3; format: biochemical; settings: 1 μM compound
Procedure: as §4, §5

[11] = biological target: MAP2K1 (MEK1) (Homo sapiens, UniProt Q02750); assay: Kinome selectivity screen MAP2K1; format: biochemical; settings: 1 μM compound
Procedure: as §4, §5

[12] = biological target: MAPK14 (p38 alpha) (Homo sapiens, UniProt Q16539); assay: Kinome selectivity screen MAPK14; format: biochemical; settings: 1 μM compound
Procedure: as §4, §5

[13] = biological target: PDGFRB (PDGFR beta) (Homo sapiens, UniProt P09619); assay: Kinome selectivity screen PDGFRB; format: biochemical; settings: 1 μM compound
Procedure: as §4, §5

Sequence of AKT1 (PKB alpha) (P31749 whole entry): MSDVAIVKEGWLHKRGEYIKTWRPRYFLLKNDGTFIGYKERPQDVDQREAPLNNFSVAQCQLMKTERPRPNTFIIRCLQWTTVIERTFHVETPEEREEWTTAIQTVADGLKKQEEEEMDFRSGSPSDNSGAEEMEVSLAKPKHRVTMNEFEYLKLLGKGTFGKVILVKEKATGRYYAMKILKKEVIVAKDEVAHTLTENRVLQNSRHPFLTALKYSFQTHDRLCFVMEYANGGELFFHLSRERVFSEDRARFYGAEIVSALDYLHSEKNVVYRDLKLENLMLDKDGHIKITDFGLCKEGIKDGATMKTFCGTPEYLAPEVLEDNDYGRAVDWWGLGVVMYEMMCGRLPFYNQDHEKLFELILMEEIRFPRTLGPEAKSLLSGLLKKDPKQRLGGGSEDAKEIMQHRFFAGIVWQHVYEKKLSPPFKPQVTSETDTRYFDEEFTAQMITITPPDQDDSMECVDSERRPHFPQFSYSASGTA
Sequence of MAPK14 (p38 alpha) (Q16539 whole entry): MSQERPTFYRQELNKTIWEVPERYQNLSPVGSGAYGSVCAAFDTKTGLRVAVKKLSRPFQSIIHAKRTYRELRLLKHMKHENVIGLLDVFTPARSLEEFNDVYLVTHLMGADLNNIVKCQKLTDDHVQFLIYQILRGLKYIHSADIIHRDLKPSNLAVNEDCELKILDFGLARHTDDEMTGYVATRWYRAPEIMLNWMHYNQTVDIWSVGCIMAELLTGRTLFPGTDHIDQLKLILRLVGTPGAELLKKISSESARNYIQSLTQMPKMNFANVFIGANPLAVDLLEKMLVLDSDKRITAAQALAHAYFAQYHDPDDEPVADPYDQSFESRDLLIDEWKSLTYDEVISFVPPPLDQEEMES
Sequence of EGFR (ErbB1) (P00533 25-1210): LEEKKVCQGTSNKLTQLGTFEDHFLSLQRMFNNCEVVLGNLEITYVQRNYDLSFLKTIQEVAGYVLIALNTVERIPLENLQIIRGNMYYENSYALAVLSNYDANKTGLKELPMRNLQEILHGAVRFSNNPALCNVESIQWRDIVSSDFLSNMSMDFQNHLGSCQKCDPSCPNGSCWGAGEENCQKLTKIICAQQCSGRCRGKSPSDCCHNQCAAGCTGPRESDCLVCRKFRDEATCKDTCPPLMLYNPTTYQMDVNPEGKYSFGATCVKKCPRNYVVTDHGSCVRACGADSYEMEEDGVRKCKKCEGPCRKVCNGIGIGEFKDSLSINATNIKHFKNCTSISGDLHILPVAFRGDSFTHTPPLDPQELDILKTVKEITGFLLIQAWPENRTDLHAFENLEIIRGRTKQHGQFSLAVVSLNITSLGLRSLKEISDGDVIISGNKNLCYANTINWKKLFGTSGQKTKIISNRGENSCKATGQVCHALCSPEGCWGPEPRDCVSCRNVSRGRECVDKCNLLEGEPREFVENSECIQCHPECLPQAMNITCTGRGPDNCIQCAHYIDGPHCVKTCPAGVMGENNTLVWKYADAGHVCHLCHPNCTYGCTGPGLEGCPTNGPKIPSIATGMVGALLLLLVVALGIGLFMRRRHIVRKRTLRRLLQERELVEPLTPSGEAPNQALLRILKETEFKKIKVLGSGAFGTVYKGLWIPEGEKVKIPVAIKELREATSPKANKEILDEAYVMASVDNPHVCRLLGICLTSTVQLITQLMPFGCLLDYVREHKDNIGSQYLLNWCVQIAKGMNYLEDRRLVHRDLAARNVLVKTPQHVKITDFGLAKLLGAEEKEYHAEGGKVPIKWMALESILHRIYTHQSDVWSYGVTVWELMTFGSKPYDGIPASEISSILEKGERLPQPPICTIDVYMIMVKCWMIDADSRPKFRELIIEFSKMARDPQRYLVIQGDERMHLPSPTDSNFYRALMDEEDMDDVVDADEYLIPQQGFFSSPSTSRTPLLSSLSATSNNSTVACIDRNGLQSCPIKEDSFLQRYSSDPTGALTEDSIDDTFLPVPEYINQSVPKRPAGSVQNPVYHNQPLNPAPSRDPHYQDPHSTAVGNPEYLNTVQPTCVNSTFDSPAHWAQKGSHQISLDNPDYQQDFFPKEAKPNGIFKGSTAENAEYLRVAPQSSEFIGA
Sequence of PDGFRB (PDGFR beta) (P09619 33-1106): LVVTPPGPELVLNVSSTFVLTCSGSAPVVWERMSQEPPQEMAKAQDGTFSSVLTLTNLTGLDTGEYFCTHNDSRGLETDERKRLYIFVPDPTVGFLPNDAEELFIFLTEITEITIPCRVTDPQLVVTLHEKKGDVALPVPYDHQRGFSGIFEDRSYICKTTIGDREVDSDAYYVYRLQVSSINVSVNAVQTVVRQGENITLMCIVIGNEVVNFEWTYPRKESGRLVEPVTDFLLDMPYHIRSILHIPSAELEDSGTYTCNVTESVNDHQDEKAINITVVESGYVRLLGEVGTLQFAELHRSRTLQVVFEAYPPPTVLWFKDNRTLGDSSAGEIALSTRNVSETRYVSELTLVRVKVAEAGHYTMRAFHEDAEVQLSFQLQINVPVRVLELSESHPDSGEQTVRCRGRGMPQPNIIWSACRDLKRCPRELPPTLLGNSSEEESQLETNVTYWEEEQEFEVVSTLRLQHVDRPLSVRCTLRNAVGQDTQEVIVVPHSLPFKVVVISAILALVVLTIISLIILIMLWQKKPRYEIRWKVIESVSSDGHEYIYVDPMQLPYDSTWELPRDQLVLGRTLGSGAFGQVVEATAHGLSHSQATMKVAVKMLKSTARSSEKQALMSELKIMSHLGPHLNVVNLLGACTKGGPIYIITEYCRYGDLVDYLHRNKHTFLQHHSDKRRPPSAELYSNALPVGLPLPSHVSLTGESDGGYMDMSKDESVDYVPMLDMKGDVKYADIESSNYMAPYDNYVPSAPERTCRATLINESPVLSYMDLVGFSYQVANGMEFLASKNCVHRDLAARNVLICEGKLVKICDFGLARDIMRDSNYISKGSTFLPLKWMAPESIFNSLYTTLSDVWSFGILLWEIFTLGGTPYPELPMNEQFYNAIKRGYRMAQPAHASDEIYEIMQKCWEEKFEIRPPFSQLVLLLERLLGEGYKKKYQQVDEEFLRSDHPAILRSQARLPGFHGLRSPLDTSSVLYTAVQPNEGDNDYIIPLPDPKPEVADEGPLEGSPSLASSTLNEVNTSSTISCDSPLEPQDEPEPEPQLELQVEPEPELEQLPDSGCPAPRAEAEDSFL
Sequence of EPHB1 (P54762 18-984): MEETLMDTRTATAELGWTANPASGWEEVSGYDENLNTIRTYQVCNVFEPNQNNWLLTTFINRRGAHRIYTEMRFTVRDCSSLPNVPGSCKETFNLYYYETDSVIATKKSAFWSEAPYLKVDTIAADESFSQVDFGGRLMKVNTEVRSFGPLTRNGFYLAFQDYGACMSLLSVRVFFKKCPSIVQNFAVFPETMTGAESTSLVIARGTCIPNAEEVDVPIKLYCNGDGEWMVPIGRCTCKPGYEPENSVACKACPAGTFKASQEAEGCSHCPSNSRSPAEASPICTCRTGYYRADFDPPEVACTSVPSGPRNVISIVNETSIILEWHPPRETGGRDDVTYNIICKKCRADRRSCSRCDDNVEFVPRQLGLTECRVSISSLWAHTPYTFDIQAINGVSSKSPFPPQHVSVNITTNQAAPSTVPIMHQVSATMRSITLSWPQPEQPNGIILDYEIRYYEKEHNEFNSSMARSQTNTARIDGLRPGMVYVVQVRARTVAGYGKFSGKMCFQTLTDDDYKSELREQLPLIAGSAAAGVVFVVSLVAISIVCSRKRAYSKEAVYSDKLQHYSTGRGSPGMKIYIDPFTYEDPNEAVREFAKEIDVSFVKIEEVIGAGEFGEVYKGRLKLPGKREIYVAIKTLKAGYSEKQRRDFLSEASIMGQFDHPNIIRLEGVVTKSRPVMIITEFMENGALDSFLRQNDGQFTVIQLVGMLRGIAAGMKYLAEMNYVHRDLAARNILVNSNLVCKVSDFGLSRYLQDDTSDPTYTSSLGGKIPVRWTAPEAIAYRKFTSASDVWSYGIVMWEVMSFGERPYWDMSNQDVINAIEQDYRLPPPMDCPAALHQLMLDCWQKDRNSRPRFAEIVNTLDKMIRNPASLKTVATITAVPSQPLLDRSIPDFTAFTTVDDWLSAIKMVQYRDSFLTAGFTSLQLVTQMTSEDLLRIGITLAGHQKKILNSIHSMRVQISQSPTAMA
Sequence of FLT3 (P36888 27-993): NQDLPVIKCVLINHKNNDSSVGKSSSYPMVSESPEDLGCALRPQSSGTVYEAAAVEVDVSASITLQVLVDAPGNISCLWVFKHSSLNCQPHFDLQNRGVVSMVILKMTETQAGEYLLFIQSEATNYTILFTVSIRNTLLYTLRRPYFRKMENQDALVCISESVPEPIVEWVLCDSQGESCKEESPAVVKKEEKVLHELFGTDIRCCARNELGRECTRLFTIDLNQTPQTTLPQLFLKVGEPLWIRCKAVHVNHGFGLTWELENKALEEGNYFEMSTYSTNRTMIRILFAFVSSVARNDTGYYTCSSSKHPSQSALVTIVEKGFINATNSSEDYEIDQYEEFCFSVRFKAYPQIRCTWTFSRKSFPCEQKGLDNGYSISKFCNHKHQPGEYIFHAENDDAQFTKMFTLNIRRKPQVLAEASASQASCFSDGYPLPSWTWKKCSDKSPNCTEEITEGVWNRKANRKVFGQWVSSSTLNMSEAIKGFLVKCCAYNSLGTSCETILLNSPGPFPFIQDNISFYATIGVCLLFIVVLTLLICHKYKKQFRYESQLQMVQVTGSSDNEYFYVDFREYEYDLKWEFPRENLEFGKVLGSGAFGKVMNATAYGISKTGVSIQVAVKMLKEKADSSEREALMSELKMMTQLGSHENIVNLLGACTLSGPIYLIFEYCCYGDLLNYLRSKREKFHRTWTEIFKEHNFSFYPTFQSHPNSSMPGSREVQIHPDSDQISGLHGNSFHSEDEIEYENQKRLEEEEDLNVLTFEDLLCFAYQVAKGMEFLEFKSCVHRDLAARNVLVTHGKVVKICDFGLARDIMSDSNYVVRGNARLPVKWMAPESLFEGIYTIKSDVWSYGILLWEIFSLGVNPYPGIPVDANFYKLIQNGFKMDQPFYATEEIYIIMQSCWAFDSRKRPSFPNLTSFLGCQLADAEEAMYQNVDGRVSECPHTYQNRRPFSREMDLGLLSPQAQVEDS

pIC50 [1]	% remaining @ 40 min [4] [%]	half-life [4] [min]	% remaining @ 40 min [5] [%]	half-life [5] [min]	% remaining @ 40 min [6] [%]	half-life [6] [min]	inhibition at 1 µM [7] [%]	inhibition at 1 µM [8] [%]	inhibition at 1 µM [9] [%]	inhibition at 1 µM [10] [%]	inhibition at 1 µM [11] [%]	inhibition at 1 µM [12] [%]	inhibition at 1 µM [13] [%]	SMILES	pEC50 ([2]; HEK293, ICW)	pEC50 ([3]; ICW, 2 h pre-incubation)	pIC50 [3]	pEC50 ([2]; Homo sapiens, HEK293, HEK293, ICW)
5.38	0	< 5	0	< 5	0	< 5								C=CC(=O)Nc1cccc(-c2n[nH]c3c2CCCC3)c1 [GO4]	5.28	< 5.00	4.74	
5.38	0	< 5	0	< 5	0	< 5	-5	-6	-4	55	4	9	-3	C=CC(=O)Nc1cccc(-c2n[nH]c3ccccc23)c1 [GO32]	5.69		5.29	
5.11	1	6	0	< 5	0	< 5	-4	-4	-2	79	4	16	-13	C=CC(=O)Nc1cccc(-c2n[nH]c3cc(C)ccc23)c1 [GO80]	5.89 and 6.10		5.39	5.90

— US20210238173A1, “MITOGEN-ACTIVATED PROTEIN KINASE KINASE 7 INHIBITORS” (Yeda Research and Development Co. Ltd., priority 2018, published 2021)
